Among the data in ChEMBL document CHEMBL1136374, “Inactivation of S-adenosyl-L-homocysteine hydrolase with novel 5'-thioadenosine derivatives. Antiviral effects” (Bioorg Med Chem Lett, 2003) are MIC values, retold here.

This assay has as its system Vaccinia virus. As to the kind of experiment: Cytopathogenicity against vaccinia virus. It counts as functional. The following applies: Orthopoxvirus vaccinia.

In brackets after ≈: the same amount, converted by molar mass.

As to `C=CSC[C@H]1OC(n2cnc3c(N)ncnc32)[C@H](O)[C@@H]1O` (stereo partly specified), the MIC stood at 30 µM (≈ 9.28 µg/mL).
